# From patent US20250188136A1, “AV3 MUTANT POLYPEPTIDES FOR PEST CONTROL” (Vestaron Corporation, priority 2021, published 2025)
# “Also recorded” adds a separate entry of the source. Ends that are not written are not given here.
# Key:
# [1] = DASbox small-scale fermentation, degradation by HPLC and LC/MS; type: physicochemical; settings: DASbox fed batch fermentation runs
# Procedure: DASbox® is a parallel bioreactor system (Eppendorf, 175 Freshwater Blvd, Enfield, CT 06082, USA). The DASbox system used here contains 8 fermentation vessels with 250 mL volume capacity, allowing 8 small scale fermentation runs simultaneously. The DASbox fermentation runs were performed according to the manufacturer's instructions, and using the fermentation conditions described herein.
# The screening of the Av3b mutants was conducted using a fed batch process in aerobic bioreactor. Reactors were initially filled to ˜45% capacity with a rich culture media containing 5-20 g/L of a carbon source such as glucose, sorbitol, or lactose, 5-20 g/L phosphoric acid, 0.1-1.5 g/L Calcium sulfate, 5-15 g/L Potassium sulfate, 0.5-10 g/L Magnesium sulfate heptahydrate, 1-5 g/L potassium hydroxide, and 10-60 g/L of corn steep liquor. The temperature of the reactor was maintained between 25-35° C. for the duration of the fermentation. The pH was held constant between 4-5.5 with the addition of 15% ammonium hydroxide. Dissolved oxygen was held constant by sparging air between 0.5-1.5 volume/volume/min and by increasing agitation to maintain a set point of 10-30%.
# Inoculation of the reactor was from an overnight seed culture containing 5-40 g/L of a carbon source such as glucose, sorbitol, or lactose, and 5-40 g/L of corn steep liquor. Inoculation percentage ranged from 5-20% of initial fill volume. Once inoculated, the reactor was fed with a 70% solution of the selected carbon source until the reactor was filled and/or desired supernatant peptide concentration was achieved, approximately 96-140 hours and 0.8-1.2 g/L, respectively.
# [2] = Thermo-stability at 54° C. in pH 4.0 solution; type: physicochemical
# Procedure: A thermo-stability study was performed for Av3b, Av3bM24, Av3bM165, Av3bM103, and Av3bM170 in a pH 4.0 solution at 54° C. for 0, 3, 7, 10, 12, and 14 days, with a caffeine internal control to cancel variation from evaporation. Samples of 1 mL were prepared in 1.5 mL microtube with sodium acetate buffer (NaOAc) at pH 4.0, containing 0.1 μg/μL of peptide, and 0.025 μg/μL of caffeine. The samples were incubated at 54° C. in a dry mixer. At 0, 3, 7, 10, 12, and 14 days, 20 μL of each sample was analyzed via analytic rpHPLC system to evaluate peptide loss. Each sample contained a fixed amount caffeine, which was used to compensate the peptide HPLC UV absorbance peak change due to volume change by evaporation. FIG. 68.
# houseflies = experiment: Housefly injection assay (knock-down); type: in vivo, Musca domestica
# Procedure: An exemplary housefly injection bioassay is as follows: conditioned media is serially diluted to generate full dose-response curves from the housefly injection bioassay. Before injection, adult houseflies (Musca domestica) are immobilized with CO2, and 12-18 mg houseflies are selected for injection. A microapplicator, loaded with a 1 cc syringe and 30-gauge needle, is used to inject 0.5 μL per fly, doses of serially diluted conditioned media samples into houseflies through the body wall of the dorsal thorax. The injected houseflies are placed into closed containers with moist filter paper and breathing holes on the lids, and they are examined by knock-down ratio or by mortality scoring at 24 hours post-injection. Normalized yields are calculated. Peptide yield means the peptide concentration in the conditioned media in units of mg/L. However, peptide yields are not always sufficient to accurately compare the strain production rate. […] A culture with a high cell density may produce a higher concentration of the peptide in the media, even though the peptide production rate of the strain is lower than another strain which has a higher production rate. Accordingly, the term “normalized yield” is created by dividing the peptide yield with the cell density in the corresponding culture and this allows a better comparison of the peptide production rate between strains. The cell density is represented by the light absorbance at 600 nm with a unit of “A” (Absorbance unit).
# A housefly injection assay was performed to determine the activity of the new mutants. Adult houseflies were immobilized with CO2 for 10 minutes, and then transferred to a CO2 pan to keep immobilized. Flies with weight between 12-20 mg were picked for injection. The new mutants and Av3b control were diluted in water to proper doses for injection. Next, a 0.5 μL peptide solution was injected into each housefly at the dorsal thorax using a hand-microapplicator with 1 cc all-glass syringe with 30 gauge straight needle. The injected flies were then transferred to a 2 oz. transparent portion container with a wet #4 filter paper. Fly knock-down was assessed at 5-hours post-injection. The activity of a given new mutant was then normalized to the activity of the Av3b production strain (control), using the fly knock-down score at 5 hours.
# Helicoverpa zea = experiment: Lepidoptera injection assay, corn earworm (CEW); type: in vivo
# Procedure: An injection assay was performed on Helicoverpa zea (corn earworm or “CEW”) and Spodoptera frugiperda (fall armyworm or “FAW”). Injections comprised a given Av3b mutant peptide combined with water to arrive at the planned dose. The Av3b mutants included Av3bM24; Av3bM165; Av3bM103; and Av3bM170. Av3b was used as a control.
# Insects were reared on an artificial diet prepared from General Purpose Lepidoptera diet (Frontier Scientific, Newark, DE 19713, product No. F9772) according to the manufacturer's instructions. To perform the insect injection bioassay, 5 mL of hot diet was dispensed into the well of a rearing tray (Bio-Service Inc., Bio-RT-32), with 8 wells per injection treatment. The hot diet was then allowed to cool and solidify. Next, third instar larva were incubated on ice in order to immobilize them. Injections were prepared on a hand-microapplicator with injection solution (>100 μL) in 1-cc all-glass syringe having a 30 gauge straight needle. Air bubbles were removed from the syringe, and the syringe was set it up on the microapplicator. Injection volume was adjusted in the microapplicator at 2 μL.
# To inject the larva, the insects were picked up and positioned close to the injection needle. The needle was allowed to penetrate the cuticle of the third pro-leg of the larva. The injection knob of the microapplicator was then rotated to inject a 2 μL solution into hemolymph from the third pro-leg. After injection the larva maintained on the needle for a few seconds to make sure the injected solution was absorbed. Then, the larva were gently removed from the needle and placed into the wells of prepared tray, along with 5 mL of solidified diet per well. Finally, the tray was sealed with vent covers.
# Injected larva were incubated at 28° C. in an insect incubator, and scored at 24-hours post-injection based on their condition. Insect conditions were categorized as follows: alive (walking, eating, normal behavior); affected (showing toxic symptoms, such as tremors, writhing, unbalanced gait, or a combination thereof), knockdown (paralyzed albeit able to move with gentle poke); and dead (unmoving, discoloration, or a combination thereof).
sequence,measurement,setting,value
KSCCPCYWGGCPWGQNCYPEGCDGPK (ends and bridges not checked; cysteine pairing not given here) [Av3bM24],degradation detected via HPLC and LC/MS,[1],degradation was detected
same,peptide change on day 14,"[2]; pH 4.0, 54° C., HPLC peak area, + mass increase, − mass loss",−29.5%
same,thermo-stability at 54° C.,"[2]; pH 4.0 solution, up to 14 days",not thermo-stable
same,housefly knock-down / insecticidal activity relative to Av3b,houseflies; knock-down at 5 hours post-injection,without a concomitant reduction in housefly knock-down activity; also recorded: insecticidal activity
same,Activity,"houseflies; knock-down at 5 hours post-injection normalized to Av3b, Yes = insecticidal activity maintained",Yes
same,knock-down effects compared to Av3b,"Helicoverpa zea; CEW and FAW injection, KD50",comparable knock-down effects to Av3b
same,KD50 CEW,"Helicoverpa zea; third instar larva, 2 μL injection, scored at 24-hours post-injection",428 ± 131 (N = 4) pmol/g
